Among the data in patent US12516056B2, “Compounds for inhibition of janus kinase 1” (MANKIND PHARMA LTD., priority 2019, dated 2026) are IC50 values, retold here.

A value given as a limit tells only on which side of the number the result lay.

One experiment addresses T1, Recombinant JAK1 (Homo sapiens, UniProt P23458).
T1 construct: purchased Carna Biosciences
Description: JAK biochemical assay (LANCE Ultra TR-FRET), JAK1. The following applies: recombinant JAK1, TR-FRET; read-out: Biochemical Assay (μM) JAK1. In short, it runs like this:
(§1)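 Kinase reactions ran in buffer of 50 mM HEPES pH 7.5 with 1 mM EGTA, 10 mM MgCl2, 2 mM DTT and 0.01% Tween-20, using recombinant enzyme. Phosphorylated ULight substrate was detected by TR-FRET, and compound effect expressed as % inhibition against vehicle.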

In another experiment the target is T2, Recombinant JAK2 (Homo sapiens, UniProt O60674).
T2 construct: purchased Carna Biosciences
Description: JAK biochemical assay (LANCE Ultra TR-FRET), JAK2. Particulars: recombinant JAK2, TR-FRET; read-out: Biochemical Assay (μM) JAK2. In short, it runs like this: as §1
On the technique in general: In TR-FRET formats the signal depends on donor and acceptor labels being close together.

The target of a further experiment is T3, Recombinant JAK3 (Homo sapiens, UniProt P52333).
T3 construct: purchased Carna Biosciences
T3 sequence (P52333 1-1124): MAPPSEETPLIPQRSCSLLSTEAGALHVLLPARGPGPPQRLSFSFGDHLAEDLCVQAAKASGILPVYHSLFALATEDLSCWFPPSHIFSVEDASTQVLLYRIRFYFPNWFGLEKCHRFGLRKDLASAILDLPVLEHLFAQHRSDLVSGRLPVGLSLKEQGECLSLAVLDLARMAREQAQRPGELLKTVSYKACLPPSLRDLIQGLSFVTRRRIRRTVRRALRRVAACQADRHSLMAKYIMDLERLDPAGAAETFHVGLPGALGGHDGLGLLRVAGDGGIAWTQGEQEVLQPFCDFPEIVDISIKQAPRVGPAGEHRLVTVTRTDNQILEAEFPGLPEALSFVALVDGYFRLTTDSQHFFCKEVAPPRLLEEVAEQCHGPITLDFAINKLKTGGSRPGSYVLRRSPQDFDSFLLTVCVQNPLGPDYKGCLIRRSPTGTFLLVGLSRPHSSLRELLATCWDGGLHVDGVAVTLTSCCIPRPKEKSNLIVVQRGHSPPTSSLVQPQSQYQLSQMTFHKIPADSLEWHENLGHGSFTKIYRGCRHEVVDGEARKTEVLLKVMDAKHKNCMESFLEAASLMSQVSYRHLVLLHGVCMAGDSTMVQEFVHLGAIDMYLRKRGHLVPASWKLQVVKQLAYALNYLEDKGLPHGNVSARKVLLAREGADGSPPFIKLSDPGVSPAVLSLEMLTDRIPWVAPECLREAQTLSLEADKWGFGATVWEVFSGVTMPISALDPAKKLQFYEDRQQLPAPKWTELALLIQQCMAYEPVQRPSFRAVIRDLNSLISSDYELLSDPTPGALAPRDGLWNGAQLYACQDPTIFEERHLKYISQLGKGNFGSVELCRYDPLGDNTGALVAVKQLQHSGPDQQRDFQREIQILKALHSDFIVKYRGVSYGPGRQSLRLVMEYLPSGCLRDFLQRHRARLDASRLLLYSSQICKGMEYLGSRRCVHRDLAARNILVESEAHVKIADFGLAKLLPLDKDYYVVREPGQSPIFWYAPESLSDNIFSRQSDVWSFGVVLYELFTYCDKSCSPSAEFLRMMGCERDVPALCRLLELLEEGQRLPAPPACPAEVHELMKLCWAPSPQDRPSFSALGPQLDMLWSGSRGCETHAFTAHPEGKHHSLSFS
In words: JAK biochemical assay (LANCE Ultra TR-FRET), JAK3. The following applies: recombinant JAK3, TR-FRET; read-out: Biochemical Assay (μM) JAK3. In short, it runs like this:
as §1

A further experiment has as its target T4, Recombinant TYK2 (Homo sapiens, UniProt P29597).
T4 construct: purchased Carna Biosciences
In words: JAK biochemical assay (LANCE Ultra TR-FRET), TYK2. The following applies: recombinant TYK2, TR-FRET; read-out: Biochemical Assay (μM) TYK2. The procedure, abridged:
as §1

In experiment [1] the test system is STAT3 phosphorylation by IL-6 in TF-1 cells. Description: JAK cellular assay: STAT3 phosphorylation by IL-6 in TF-1 cells (HTRF). Type of experiment: cell-based. The following applies: Homo sapiens, TF-1, TF-1 cells, IL-6 30 ng/ml, pSTAT3 HTRF; read-out: Cell Based Assay (μM) TF-1/IL-6/pSTAT3. The procedure, abridged: (§2)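 TF-1 cells starved overnight in low-serum OptiMEM, then 120,000/well in RPMI, preincubated with compound 30 min at 37 °C (0.2% DMSO final). Stimulation 20 min with IL-6 30 ng/ml (pSTAT3) or GMCSF 5 ng/ml (pSTAT5); lysate phospho-STAT by HTRF, unstimulated background subtracted.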

Experiment [2] has as its system STAT5 phosphorylation by GMCSF in TF-1 cells. In words: JAK cellular assay: STAT5 phosphorylation by GMCSF in TF-1 cells (HTRF). It is filed as cell-based. Particulars: Homo sapiens; TF-1 cells, GMCSF 5 ng/ml, pSTAT5 HTRF; read-out: Cell Based Assay (μM) TF-1/GMCSF/pSTAT5. The procedure, abridged:
as §2

In experiment [3] the test system is STAT5 phosphorylation by IL-2 in HT-2 cells. Description: STAT5 phosphorylation by IL-2 in HT-2 cells (HTRF). Type of experiment: cell-based. Particulars: HT2, HT-2 cells, IL-2 50 U/ml, pSTAT5 HTRF; read-out: Cell Based Assay (μM) HT-2/IL-2/pSTAT5. In short, it runs like this:
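Starved HT-2 cells (120,000/well) were preincubated 30 min at 37 °C with compound (0.2% DMSO), then stimulated 20 min with human IL-2 (50 U/ml). pSTAT5 in lysates measured by HTRF, with unstimulated-cell background subtracted.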

Experiment [4] relates to IFN-γ production in NK 92 cells by IL-12. Description: IFN-γ production in NK 92 cells by IL-12 (ELISA). The following applies: NK92, IFN-γ secretion, read-out: Cell Based Assay (μM) NK-92/IL-2/IFN-γ.

T1 sequence (P23458 whole entry): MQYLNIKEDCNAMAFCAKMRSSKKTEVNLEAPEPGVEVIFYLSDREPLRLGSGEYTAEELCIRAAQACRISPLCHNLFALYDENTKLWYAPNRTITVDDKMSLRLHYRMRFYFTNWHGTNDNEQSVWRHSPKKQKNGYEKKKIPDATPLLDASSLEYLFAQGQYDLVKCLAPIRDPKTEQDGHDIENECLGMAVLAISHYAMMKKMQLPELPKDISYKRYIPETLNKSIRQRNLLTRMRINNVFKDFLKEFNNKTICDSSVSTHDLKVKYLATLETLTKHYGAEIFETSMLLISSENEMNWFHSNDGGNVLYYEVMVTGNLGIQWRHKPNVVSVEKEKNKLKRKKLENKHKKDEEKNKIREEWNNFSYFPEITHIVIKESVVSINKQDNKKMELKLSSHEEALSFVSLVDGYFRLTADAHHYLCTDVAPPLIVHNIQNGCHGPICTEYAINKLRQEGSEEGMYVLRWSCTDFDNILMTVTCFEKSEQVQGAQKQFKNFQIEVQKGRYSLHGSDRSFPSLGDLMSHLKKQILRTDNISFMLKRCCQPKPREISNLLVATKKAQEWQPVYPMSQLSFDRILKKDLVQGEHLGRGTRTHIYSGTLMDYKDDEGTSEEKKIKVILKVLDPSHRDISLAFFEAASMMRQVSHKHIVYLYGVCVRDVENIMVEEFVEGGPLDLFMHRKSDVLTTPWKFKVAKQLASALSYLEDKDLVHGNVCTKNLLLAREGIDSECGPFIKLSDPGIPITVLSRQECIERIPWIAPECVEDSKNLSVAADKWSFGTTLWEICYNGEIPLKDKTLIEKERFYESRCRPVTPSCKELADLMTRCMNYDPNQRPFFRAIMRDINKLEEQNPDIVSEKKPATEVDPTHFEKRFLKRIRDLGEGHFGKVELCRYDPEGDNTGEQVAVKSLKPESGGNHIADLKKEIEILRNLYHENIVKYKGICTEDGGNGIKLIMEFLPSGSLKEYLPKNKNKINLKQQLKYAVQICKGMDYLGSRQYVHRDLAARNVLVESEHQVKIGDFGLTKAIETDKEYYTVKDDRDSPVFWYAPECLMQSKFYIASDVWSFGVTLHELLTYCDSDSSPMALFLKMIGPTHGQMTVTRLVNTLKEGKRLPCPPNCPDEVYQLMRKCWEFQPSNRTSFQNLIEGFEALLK
T4 sequence (P29597 whole entry): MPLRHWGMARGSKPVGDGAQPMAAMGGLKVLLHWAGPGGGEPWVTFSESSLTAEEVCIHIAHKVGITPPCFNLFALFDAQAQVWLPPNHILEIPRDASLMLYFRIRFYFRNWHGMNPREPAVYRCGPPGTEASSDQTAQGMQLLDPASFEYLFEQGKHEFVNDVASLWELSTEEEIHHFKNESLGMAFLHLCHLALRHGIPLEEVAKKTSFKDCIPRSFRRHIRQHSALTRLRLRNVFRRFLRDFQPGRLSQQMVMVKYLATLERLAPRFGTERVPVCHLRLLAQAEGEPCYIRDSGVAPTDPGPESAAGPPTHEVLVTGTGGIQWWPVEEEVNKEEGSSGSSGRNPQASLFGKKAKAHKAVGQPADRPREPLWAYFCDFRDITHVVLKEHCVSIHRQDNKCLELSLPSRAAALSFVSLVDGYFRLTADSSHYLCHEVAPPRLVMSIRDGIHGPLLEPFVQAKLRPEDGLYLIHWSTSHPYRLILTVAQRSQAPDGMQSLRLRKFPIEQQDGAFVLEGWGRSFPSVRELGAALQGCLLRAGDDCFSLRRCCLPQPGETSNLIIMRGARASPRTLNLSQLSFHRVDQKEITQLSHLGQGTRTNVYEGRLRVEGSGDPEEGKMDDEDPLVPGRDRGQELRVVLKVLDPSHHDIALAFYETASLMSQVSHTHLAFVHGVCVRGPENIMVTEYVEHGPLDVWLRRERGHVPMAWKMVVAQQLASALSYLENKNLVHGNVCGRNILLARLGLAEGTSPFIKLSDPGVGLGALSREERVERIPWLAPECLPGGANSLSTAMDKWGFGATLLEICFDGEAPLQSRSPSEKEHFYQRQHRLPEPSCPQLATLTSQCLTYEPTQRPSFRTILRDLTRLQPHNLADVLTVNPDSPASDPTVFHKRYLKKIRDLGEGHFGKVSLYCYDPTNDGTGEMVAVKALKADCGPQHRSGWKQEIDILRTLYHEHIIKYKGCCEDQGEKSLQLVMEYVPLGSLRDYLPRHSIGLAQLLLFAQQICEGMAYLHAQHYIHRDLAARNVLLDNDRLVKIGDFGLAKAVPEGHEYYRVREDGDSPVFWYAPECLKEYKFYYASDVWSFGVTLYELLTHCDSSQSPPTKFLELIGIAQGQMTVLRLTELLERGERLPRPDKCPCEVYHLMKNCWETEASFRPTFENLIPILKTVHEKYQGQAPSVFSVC
T2 sequence (O60674 whole entry): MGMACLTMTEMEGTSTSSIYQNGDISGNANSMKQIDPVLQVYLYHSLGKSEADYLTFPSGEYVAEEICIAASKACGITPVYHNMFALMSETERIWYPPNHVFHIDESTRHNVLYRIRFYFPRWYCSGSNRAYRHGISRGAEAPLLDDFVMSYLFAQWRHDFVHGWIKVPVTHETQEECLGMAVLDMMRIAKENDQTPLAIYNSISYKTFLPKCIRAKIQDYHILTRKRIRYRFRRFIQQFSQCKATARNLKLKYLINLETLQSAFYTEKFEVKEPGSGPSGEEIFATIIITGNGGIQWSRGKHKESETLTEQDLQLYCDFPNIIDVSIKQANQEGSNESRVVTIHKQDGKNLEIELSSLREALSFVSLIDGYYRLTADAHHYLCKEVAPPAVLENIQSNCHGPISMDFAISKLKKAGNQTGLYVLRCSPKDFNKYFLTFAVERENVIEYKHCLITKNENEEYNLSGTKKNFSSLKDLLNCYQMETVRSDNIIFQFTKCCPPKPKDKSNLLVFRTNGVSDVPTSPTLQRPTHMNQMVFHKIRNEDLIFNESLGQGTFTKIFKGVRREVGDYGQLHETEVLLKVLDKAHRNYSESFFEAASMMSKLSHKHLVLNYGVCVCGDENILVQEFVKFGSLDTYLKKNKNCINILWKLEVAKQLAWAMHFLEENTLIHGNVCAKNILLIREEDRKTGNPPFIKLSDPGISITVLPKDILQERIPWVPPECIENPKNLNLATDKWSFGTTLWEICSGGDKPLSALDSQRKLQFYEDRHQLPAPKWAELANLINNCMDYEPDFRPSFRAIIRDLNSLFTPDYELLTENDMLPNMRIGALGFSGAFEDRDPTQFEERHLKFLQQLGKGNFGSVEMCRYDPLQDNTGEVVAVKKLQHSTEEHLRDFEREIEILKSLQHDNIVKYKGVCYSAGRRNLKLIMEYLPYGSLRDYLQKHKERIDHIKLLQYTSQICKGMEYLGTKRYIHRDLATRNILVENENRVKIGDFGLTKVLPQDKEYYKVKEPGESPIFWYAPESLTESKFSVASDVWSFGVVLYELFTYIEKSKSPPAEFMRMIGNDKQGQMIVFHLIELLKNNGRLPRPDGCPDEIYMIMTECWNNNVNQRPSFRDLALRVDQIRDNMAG

For `CC(C)N1CCC([C@@](O)(c2ccc(-n3cc(-c4ccnc5[nH]cnc45)cn3)nc2)C(F)(F)F)C1` (stereo partly drawn) [Example 1225, (R)-1-(6-(4-(3H-imidazo[4,5-b]pyridin-7-yl)-1H-pyrazol-1-yl)pyridin-3-yl)-2,2,2-trifluoro-1-(1-isopropylpyrrolidin-3-yl)ethanol], the IC50 at Recombinant JAK1 is 0.0025 µM; at Recombinant JAK2 it was 0.064 µM; on Recombinant JAK3, 0.018 µM; on Recombinant TYK2 it was more than 1 µM; in experiment [1] it was 0.16 µM; in experiment [2], more than 1 µM. Further, the figures for the IC50 in experiment [3] and in experiment [4] were 0.47 µM and more than 3 µM, respectively.

For `OC(c1ccc(-n2cc(-c3ccnc4[nH]cnc34)cn2)nc1)C(F)(F)F` (stereo not drawn) [Example 1169, 1-(6-(4-(3H-imidazo[4,5-b]pyridin-7-yl)-1H-pyrazol-1-yl)pyridin-3-yl)-2,2,2-trifluoroethanol], the IC50 on Recombinant JAK1 is 0.013 µM; on Recombinant JAK2 it was 0.073 µM; on Recombinant JAK3, 0.014 µM; on Recombinant TYK2 it was more than 1 µM; in experiment [1], 0.45 µM; in experiment [2] it was more than 10 µM. Further, the IC50 in experiment [3] is less than 1 µM; in experiment [4], more than 10 µM.

Turning to `CS(=O)(=O)CC[C@H](c1ccc(-n2cc(-c3ccnc4[nH]cnc34)cn2)nc1)C(F)(F)F` [Example 1182, 7-(1-(5-((R)-1,1,1-trifluoro-4-(methylsulfonyl)butan-2-yl)pyridin-2-yl)-1H-pyrazol-4-yl)-3H-imidazo[4,5-b]pyridine], the IC50 is 0.015 µM on Recombinant JAK1; 0.041 µM on Recombinant JAK3; more than 1 µM on Recombinant TYK2; 0.35 µM in experiment [1]; more than 1 µM in experiment [2]; 0.9 µM in experiment [3]. In addition, in experiment [4], the IC50 is more than 3 µM.

Consider `CN1CC(C(O)(c2ccc(-n3cc(-c4ccnc5[nH]cnc45)cn3)nc2)C(F)(F)F)C1` (stereo not drawn) [Example 1231, 1-(6-(4-(3H-imidazo[4,5-b]pyridin-7-yl)-1H-pyrazol-1-yl)pyridin-3-yl)-2,2,2-trifluoro-1-(1-methylazetidin-3-yl)ethanol], for which the IC50 on Recombinant JAK1 is 0.0003 µM; on Recombinant JAK2, 0.005 µM; in experiment [1], 0.05 µM; in experiment [2] it was 1.5 µM; in experiment [3], 0.15 µM; in experiment [4], more than 3 µM.

With `CC(O)(c1ccc(-n2cc(-c3ccnc4[nH]cnc34)cn2)nc1)C(F)(F)F` (stereo not drawn) [Example 1125, 2-(6-(4-(3H-imidazo[4,5-b]pyridin-7-yl)-1H-pyrazol-1-yl)pyridin-3-yl)-1,1,1-trifluoropropan-2-ol], the IC50 was 0.004 µM on Recombinant JAK1; 0.023 µM at Recombinant JAK2; 0.009 µM at Recombinant JAK3; 0.15 µM on Recombinant TYK2; 0.27 µM in experiment [1]; more than 10 µM in experiment [2]. Also, the results for the IC50 in experiment [3] and in experiment [4] were 0.26 µM and more than 10 µM, respectively.

For the molecule `CCN1CCC([C@](O)(c2ccc(-n3cc(-c4ccnc5[nH]cnc45)cn3)nc2)C(F)(F)F)C1` (stereo partly drawn) [Example 1233, (S)-1-(6-(4-(3H-imidazo[4,5-b]pyridin-7-yl)-1H-pyrazol-1-yl)pyridin-3-yl)-1-(1-ethylpyrrolidin-3-yl)-2,2,2-trifluoroethanol], the IC50 at Recombinant JAK1 is less than 0.1 µM; at Recombinant JAK2, less than 0.1 µM; at Recombinant JAK3, less than 0.1 µM; on Recombinant TYK2, less than 0.5 µM; in experiment [1] it was 0.21 µM; in experiment [2] it was more than 1 µM. Also, the IC50 in experiment [3] is more than 0.5 µM; in experiment [4], more than 3 µM.

For `COC(c1ccc(-n2cc(-c3ccnc4[nH]cnc34)cn2)nc1)C(F)(F)F` (stereo not drawn) [Example 1119, 7-(1-(5-(2,2,2-trifluoro-1-methoxyethyl)pyridin-2-yl)-1H-pyrazol-4-yl)-3H-imidazo[4,5-b]pyridine], the IC50 on Recombinant JAK1 is 0.03 µM; at Recombinant JAK2, 0.2 µM; on Recombinant JAK3, 0.07 µM; at Recombinant TYK2, more than 1 µM; in experiment [1], 1.3 µM; in experiment [2] it was more than 10 µM. The IC50 is more than 1 µM in experiment [3] and 10 µM in experiment [4].

On to `N#CCc1ccc(-n2cc(-c3ccnc4[nH]cnc34)cn2)nc1` [Example 1078, 2-(6-(4-(3H-imidazo[4,5-b]pyridin-7-yl)-1H-pyrazol-1-yl)pyridin-3-yl)acetonitrile], for which the IC50 was 0.025 µM on Recombinant JAK1; 0.108 µM on Recombinant JAK2; 0.07 µM on Recombinant JAK3; more than 1 µM at Recombinant TYK2; 1.05 µM in experiment [1]; more than 10 µM in experiment [2]. Moreover, the IC50 in experiment [3] is more than 1 µM; in experiment [4], more than 10 µM.

In the case of `CCN1CCC([C@@](O)(c2ccc(-n3cc(-c4ccnc5[nH]cnc45)cn3)nc2)C(F)(F)F)C1` (stereo partly drawn) [Example 1232, (R)-1-(6-(4-(3H-imidazo[4,5-b]pyridin-7-yl)-1H-pyrazol-1-yl)pyridin-3-yl)-1-(1-ethylpyrrolidin-3-yl)-2,2,2-trifluoroethanol], the IC50 at Recombinant JAK1 is 0.003 µM; on Recombinant JAK2, 0.023 µM; on Recombinant JAK3, 0.015 µM; on Recombinant TYK2, 0.2 µM; in experiment [1], 0.09 µM; in experiment [2] it was more than 1 µM. Besides, the IC50 in experiment [3] was 0.34 µM; in experiment [4] it was more than 3 µM.
